The values that follow are results of earlier work, collected in patent publication US20250134883A1, “NOVEL COMPOSITIONS” (TULEX PHARMACEUTICALS INC., priority 2022, published 2025).

For this data set the following is noted: high dose naltrexone (0.5, 1.0 and 2.0 mg/kg).

The structures appear in SMILES notation.

For the compound `O=C1CC[C@@]2(O)[C@H]3Cc4ccc(O)c5c4[C@@]2(CCN3CC2CC2)[C@H]1O5` [naltrexone, Naltrexone], the “effect on autistic behavior and gaze aversion” value was “reverse autistic behavior and gaze aversion”.
